The values that follow come from patent US20250270190A1, “KIT INHIBITORS” (BLUEPRINT MEDICINES CORPORATION, priority 2022, published 2025).

T1 sequence (P10721 26-976 V560G/V654A): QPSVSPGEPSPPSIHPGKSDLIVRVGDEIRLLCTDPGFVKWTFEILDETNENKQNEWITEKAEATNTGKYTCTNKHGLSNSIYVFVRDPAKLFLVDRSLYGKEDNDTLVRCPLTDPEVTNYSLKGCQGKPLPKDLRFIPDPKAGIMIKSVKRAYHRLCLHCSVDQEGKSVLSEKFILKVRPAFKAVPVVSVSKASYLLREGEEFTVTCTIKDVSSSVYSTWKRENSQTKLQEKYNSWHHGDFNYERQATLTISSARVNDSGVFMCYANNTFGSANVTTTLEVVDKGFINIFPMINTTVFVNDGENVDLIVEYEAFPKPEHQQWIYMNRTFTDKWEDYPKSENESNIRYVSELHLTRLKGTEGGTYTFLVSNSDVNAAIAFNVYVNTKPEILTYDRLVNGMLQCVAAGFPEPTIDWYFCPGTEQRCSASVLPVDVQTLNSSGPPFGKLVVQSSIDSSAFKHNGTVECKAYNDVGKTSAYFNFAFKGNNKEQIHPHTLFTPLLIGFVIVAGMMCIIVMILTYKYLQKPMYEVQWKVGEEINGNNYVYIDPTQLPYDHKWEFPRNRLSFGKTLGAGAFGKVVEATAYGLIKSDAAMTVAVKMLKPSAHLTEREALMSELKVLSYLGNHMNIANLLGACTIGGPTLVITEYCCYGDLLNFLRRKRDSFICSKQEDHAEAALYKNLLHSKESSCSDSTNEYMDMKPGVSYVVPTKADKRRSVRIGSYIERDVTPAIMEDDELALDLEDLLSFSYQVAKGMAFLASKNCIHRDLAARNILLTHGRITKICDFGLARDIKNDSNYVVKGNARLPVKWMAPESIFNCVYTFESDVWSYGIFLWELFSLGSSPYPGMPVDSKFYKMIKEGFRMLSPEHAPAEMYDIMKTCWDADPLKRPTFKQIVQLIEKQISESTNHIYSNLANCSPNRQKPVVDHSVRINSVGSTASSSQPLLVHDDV

This assay concerns the target T1, c-kit autophosphorylation (Phospho c-Kit Tyr721) in HMC 1.1 (exon 11/13) cells, V654A (Homo sapiens, UniProt P10721, V560G/V654A).
T1 construct: endogenous in cells; host or cells: HMC 1.1 (exon 11/13) cells
The assay is described as follows: pKIT Meso Scale Discovery (MSD) assay, inhibition of autophosphorylation of KIT, HMC1.1_V654A. The assay is classed as cell-based. The following applies: Table 1, cell line not named for Table 1, b1056 names pKIT HMC1.1_V654A, read-out: Code (IC50 for inhibition of autophosphorylation of KIT, pKIT MSD assay). An excerpt: In this MSD assay, specific capture antibodies for the analytes were coated in arrays in each well of a 96-well carbon electrode plate surface. The detection system used SULFO-TAG™ labels that emit light upon electrochemical stimulation initiated at the electrode surfaces of the […] and MULTI-SPOT® plates. The electrical stimulation was decoupled from the output signal, which was light and generated assays with minimal background. The goal of this assay was to assess the percent inhibition of autophosphorylation of c-kit in cells when treated with compounds of the disclosure in a dose-dependent manner.
HMC1.1 cells were maintained in IMDM media supplemented with 20% Calf Serum with Iron and 100 units/mL Penicillin-Streptomycin and grown in a 37° C. humidified tissue culture incubator. HMC1.1 cells were passaged by 1:5 dilution into fresh IMDM media supplemented with 20% Calf Serum with Iron and 100 units/mL Penicillin-Streptomycin every 5-7 days and were discarded after 20 passages.
Seeding was performed as follows: HMC cells were brought to 1×10^6 cells/mL in fresh phenol red free, serum-free, iron-free IDM media with Pen/Strep; cells were seeded/plated into respective U-bottom plate by dispensing 50 μL/well (50,000 cells) using the Multidrop, and covered and incubated cells at 37° C. in a humidified tissue culture incubator for 4 hours (starvation).
Dosing was performed as follows: The compound mother plate was prepared by adding 16 μL of compound to 24 μL of DMSO to row A, odd-numbered columns of screen matrix plate. […] Intermediate plates were prepared in V-bottom plates by dispensing 98 μL of phenol red free, serum free IMDM media with Pen/Strep into all wells. 2 μL DMSO or 2 μL 10 mM staurosporine was added to appropriate control wells. At the end of four hours, the Bravo protocol 10 cpds vertical dose MSD 2 U-plates 96-well was used to: add 2 μL from the compound plate to the intermediate plate and dose cells with 7 μL from the intermediate plate. The cells were covered and incubated at 37° C. in a humidified tissue culture incubator for 90 min. The complete lysis buffer was prepared with AlphaLISA 5× Lysis Buffer supplemented with 1× protease inhibitor cocktail and kept on ice. The cells were pelleted by centrifuging plate at 2500×g for 5 min, 4° C. and media removed. Complete lysis buffer was added (14 μL/well). The cells were covered and shaken at 4° C. on a plate shaker at 600 rpm for 30 min and kept cold
The MSD protocol was preformed as follows: Tris Wash Buffer (2L) was prepared by diluting 10× stock of Tris Wash Buffer to 1× in water. Blocking Solution was prepared by dissolving 600 mg Blocker A in 20 mL 1× Trish Wash Buffer (per plate). The Antibody Dilution Buffer was prepared by mixing 1 mL Blocking solution and 2 mL 1× Trish Wash Buffer (per plate) and kept on ice. Blocking Solution was added (150 μL/well) to each MSD plate using a multichannel repeater pipette. The plate was covered and incubated at room temperature on a plate shaker at 700 rpm for hr. The Bio Tek protocol RL-96w-wash-MSD_stacker_fromC was used to wash plates 3× with 150 μL/well. Cells were pelleted by centrifuging lysate plates at 2500×g for 5 mins. The Bravo protocol was used (transfer 25 ul supernatants from V-96 to assay plate) to transfer 25 μL sample lysate per well to each MSD plate. The plates were covered and incubated at room temperature on a plate shaker at 700 rpm for hr. The Bio Tek protocol RL-96w-wash-MSD_stacker_fromC was used to wash plates 3× with 150 μL/well. The Detection Antibody Solution was prepared by diluting the 60 μL of the 50× antibody stock in 2.94 mL of the Antibody Dilution Buffer (per plate) and kept on ice. 25 μL/well of detection antibody solution was added to each MSD plate. The plates were covered and incubated at room temperature on a plate shaker at 700 rpm for 1 hr. The Read Buffer was prepared by diluting 5 mL of 4× stock of Read Buffer to 1× in 15 mL water (per plate).
Regarding `COc1cc(Nc2cc(N)nc(C(F)F)n2)ncc1-c1cnn(C[C@H]2CCN2C)c1` (single isomer, unassigned) [Compound 138, (R)-2-(difluoromethyl)-N4-(4-methoxy-5-(1-((1-methylazetidin-2-yl)methyl)-1H-pyrazol-4-yl)pyridin-2-yl)pyrimidine-4,6-diamine or (S)-2-(difluoromethyl)-N4-(4-methoxy-5-(1-((1-methylazetidin-2-yl)methyl)-1H-pyrazol-4-yl)pyridin-2-yl)pyrimidine-4,6-diamine], the IC50 was less than 10 nM.

`COc1cc(Nc2cc(N)nc(C(F)F)n2)ncc1-c1cnn(C[C@@H]2CCN2C)c1` (single isomer, unassigned) [Compound 139, (S)-2-(difluoromethyl)-N4-(4-methoxy-5-(1-((1-methylazetidin-2-yl)methyl)-1H-pyrazol-4-yl)pyridin-2-yl)pyrimidine-4,6-diamine or (R)-2-(difluoromethyl)-N4-(4-methoxy-5-(1-((1-methylazetidin-2-yl)methyl)-1H-pyrazol-4-yl)pyridin-2-yl)pyrimidine-4,6-diamine]: the IC50 is less than 10 nM. As for `CC(C)Oc1cc(Nc2cc(N)nc([C@H](C)F)n2)ncc1-c1cnn([C@@H]2CCOC2)c1` (single isomer, unassigned) [Compound 156, 2-((S)-1-fluoroethyl)-N4-(4-isopropoxy-5-(1-((R)-tetrahydrofuran-3-yl)-1H-pyrazol-4-yl)pyridin-2-yl)pyrimidine-4,6-diamine or 2-((S)-1-fluoroethyl)-N4-(4-isopropoxy-5-(1-((S)-tetrahydrofuran-3-yl)-1H-pyrazol-4-yl)pyridin-2-yl)pyrimidine-4,6-diamine], the figure is less than 10 nM; as for `CC(C)Oc1cc(Nc2cc(N)nc([C@H](C)F)n2)ncc1-c1cnn([C@H]2CCOC2)c1` (single isomer, unassigned) [Compound 157, 2-((S)-1-fluoroethyl)-N4-(4-isopropoxy-5-(1-((S)-tetrahydrofuran-3-yl)-1H-pyrazol-4-yl)pyridin-2-yl)pyrimidine-4,6-diamine or 2-((S)-1-fluoroethyl)-N4-(4-isopropoxy-5-(1-((R)-tetrahydrofuran-3-yl)-1H-pyrazol-4-yl)pyridin-2-yl)pyrimidine-4,6-diamine], less than 10 nM.

On to `Nc1cc(Nc2cc(OC3CC3)c(-c3cnn([C@H]4CCNC4)c3)cn2)nc(C(F)F)n1` (single isomer, unassigned) [Compound 159, (S)-N4-(4-cyclopropoxy-5-(1-(pyrrolidin-3-yl)-1H-pyrazol-4-yl)pyridin-2-yl)-2-(difluoromethyl)pyrimidine-4,6-diamine or (R)-N4-(4-cyclopropoxy-5-(1-(pyrrolidin-3-yl)-1H-pyrazol-4-yl)pyridin-2-yl)-2-(difluoromethyl)pyrimidine-4,6-diamine], for which the IC50 was less than 10 nM. Take `Nc1cc(Nc2cc(OC3CC3)c(-c3cnn([C@@H]4CCNC4)c3)cn2)nc(C(F)F)n1` (single isomer, unassigned) [Compound 160, (R)-N4-(4-cyclopropoxy-5-(1-(pyrrolidin-3-yl)-1H-pyrazol-4-yl)pyridin-2-yl)-2-(difluoromethyl)pyrimidine-4,6-diamine or (S)-N4-(4-cyclopropoxy-5-(1-(pyrrolidin-3-yl)-1H-pyrazol-4-yl)pyridin-2-yl)-2-(difluoromethyl)pyrimidine-4,6-diamine]: the IC50 is less than 10 nM.

Take `Nc1cc(Nc2cc(OC3CC3)c(-c3cnn(C[C@H]4CCN4)c3)cn2)nc(C(F)F)n1` (single isomer, unassigned) [Compound 161, (R)-N4-(5-(1-(azetidin-2-ylmethyl)-1H-pyrazol-4-yl)-4-cyclopropoxypyridin-2-yl)-2-(difluoromethyl)pyrimidine-4,6-diamine or (S)-N4-(5-(1-(azetidin-2-ylmethyl)-1H-pyrazol-4-yl)-4-cyclopropoxypyridin-2-yl)-2-(difluoromethyl)pyrimidine-4,6-diamine]: the IC50 is less than 10 nM.
